Data from patent publication US10780101B2, “Amide derivatives of squalamine for the treatment of infections” (VIRBAC, priority 2016, dated 2020).
In brackets after ≈: the same amount, converted by molar mass.

Tests used:
[1] = system: S. aureus Human ATCC 25923; experiment: MIC determination, S. aureus human ATCC 25923; type: cell-based; details: Staphylococcus aureus, ATCC25923; Gram-positive; Mueller-Hinton medium, 24 h at 37° C.
Experimental: (§1) A negative control (2 mL of sterile culture medium)
(§2) A positive control (1940 μL of culture medium+40 μL of DMSO+20 μL of the bacterial suspension) from a thawed biological strain (the biological strains are stored at −80° C. in glycerol).
(§3) The tubes were incubated at 37° C. for 24 hours at 100 rpm.
(§4) The microorganisms were handled under a type L2 laboratory fume cupboard and, before any handling, a UV cycle was programmed and only sterile material was used. […] The chemical compounds to be tested were prepared in a DMSO/methanol mixture (50/50) at a concentration of 5 mg/mL.
(§5) After 24 hours of incubation, a measurement of the optical density was taken using a spectrophotometer at 600 nm, collecting 100 μL of the bacterial suspension diluted in 900 μL of the sterile culture medium. This test required the use of a 96-well plate and the required volume of the microbial suspension to be seeded was calculated for an OD corresponding to a value equal to 0.01 in each well. In this plate, the first line corresponded to the negative control (195 μL of sterile culture medium in each well), the second line corresponded to the positive control (seeded culture medium supplemented with 2% of DMSO), and the third line was loaded twice with bacterial suspension; 8 μL of test product were placed in each well. Thereafter, a 0.5 cascade dilution was performed from this line.
(§6) The first column served as inhibition control. A sterile filter was then placed on the microplate, allowing the passage of gases but not of contaminants. The microplate was incubated at 37° C. under a humid atmosphere for 24 hours.
(§7) NB: The medium used is Mueller-Hinton (MH) medium for bacteria. All the tests were performed in duplicate.
(§8) After incubation, the filter was replaced with a transparent film, and an OD reading was then taken in an iEMS plate spectrophotometer at 620 nm. Calculation of the minimum inhibitory concentration (MIC) was performed.

S. aureus Animal (340) = experiment: MIC determination, S. aureus animal (340); type: cell-based; details: Staphylococcus aureus; Gram-positive; Mueller-Hinton medium, 24 h at 37° C.
Experimental: as §1, §2, §3, §4, §5, §6, §7, §8

[2] = system: S. intermedius Animal (1051997); experiment: MIC determination, S. intermedius animal (1051997); type: cell-based; details: Staphylococcus intermedius; Gram-positive; Mueller-Hinton medium, 24 h at 37° C.
Experimental: as §1, §2, §3, §4, §5, §6, §7, §8

[3] = system: E. faecalis Human ATCC 29212; experiment: MIC determination, E. faecalis human ATCC 29212; type: cell-based; details: Enterococcus faecalis, ATCC29212; Gram-positive; Mueller-Hinton medium, 24 h at 37° C.
Experimental: as §1, §2, §3, §4, §5, §6, §7, §8

E. coli Human ATCC 28922 = experiment: MIC determination, E. coli human ATCC 28922; type: cell-based; details: Escherichia coli, ATCC28922; Gram-negative; Mueller-Hinton medium, 24 h at 37° C.
Experimental: as §1, §2, §3, §4, §5, §6, §7, §8

E. coli Animal (1956) = experiment: MIC determination, E. coli animal (1956); type: cell-based; details: Escherichia coli; Gram-negative; Mueller-Hinton medium, 24 h at 37° C.
Experimental: as §1, §2, §3, §4, §5, §6, §7, §8

[4] = system: P. aeruginosa Human ATCC 27853; experiment: MIC determination, P. aeruginosa human ATCC 27853; type: cell-based; details: Pseudomonas aeruginosa, ATCC27853; Gram-negative; Mueller-Hinton medium, 24 h at 37° C.
Experimental: as §1, §2, §3, §4, §5, §6, §7, §8

[5] = system: P. aeruginosa Animal (1051575); experiment: MIC determination, P. aeruginosa animal (1051575); type: cell-based; details: Pseudomonas aeruginosa; Gram-negative; Mueller-Hinton medium, 24 h at 37° C.
Experimental: as §1, §2, §3, §4, §5, §6, §7, §8

CHO-K1 cells = experiment: WST1 cytotoxicity test on CHO-K1 cells; type: cell-based, Chinese hamster; details: Cricetulus griseus, CHO-K1, 24 h, read-out: IC50 (μg/mL) CHO
Experimental: Test WST1 was used to measure the cytotoxic activity of the products. This is a colorimetric test which makes it possible to measure the viability and the degree of cell proliferation. It is based on cleavage of the colorless tetrazolium salts WST-1 (4-[3-(4-iodophenyl)-2-(4-nitrophenyl)-2H-5-tetrazolio]-1,3-benzene disulfonate) with mitochondrial dehydrogenases to the yellow-colored formazan derivative, which may be quantified by spectrophotometry at 420-480 nm.
The WST1 test was performed on Chinese hamster ovary cells. The CHO-K1 cells (ATCC, USA) are kept in culture in McCoy's 5A medium supplemented with 10% fetal calf serum, 2 mM of L-glutamine and a mixture of penicillin-streptomycin (100 U/ml: 10 μg/ml). The culture is incubated at 37° C. under an atmosphere enriched in CO2 (5%), and subcultured every two days.
The cells are transferred into 96-well plates (25000 cells/mL) in whole McCoy's 5A medium, and maintained for 24 hours at 37° C. under a humid atmosphere enriched in CO2 (5%). Increasing concentrations of test products are added to the wells in double tests and 8 growth controls containing the cells in the medium alone are included in each series of tests. After 24 hours at 37° C. (5% CO2), the culture medium is removed, the cells are rinsed in phosphate buffer (PBS) and 50 μL of PBS containing 10% of reagent WST1 are added to each well. After 20 minutes of incubation at 37° C., the results are read by spectrophotometry at 450 nm.
The results are expressed in dose-response relationships, modeled by nonlinear regression analysis using the TableCurve software. The 50% inhibitory concentration (IC50) represents the concentration of product that is capable of reducing the cell viability by 50%.

P. aeruginosa (1051575) = experiment: Potentiation of doxycycline activity (combination MIC); type: cell-based, Pseudomonas aeruginosa; details: in presence of doxycycline 2 μg/mL; 24 hours at 37° C.

SMILES	MIC [1]	MIC (S. aureus Animal (340))	MIC [2]	MIC [3]	MIC (E. coli Human ATCC 28922)	MIC (E. coli Animal (1956))	MIC [4]	MIC [5]	IC50 (CHO-K1 cells)	MIC - P. aeruginosa (1051575): content of compound of formula (I) to restore the doxycycline activity (at 2 μg/mL) (P. aeruginosa (1051575))
C[C@H](CCC(=O)NC1CCCCC1)[C@H]1CCC2C3C(CC[C@@]21C)[C@@]1(C)CC[C@H](NCCCNCCCN)CC1C[C@H]3O (stereo partly drawn) [(38), 3β-norspermidino-N-cyclohexylchenodeoxycholamide]	4 µg/mL (≈ 6.81 µM)	4 µg/mL (≈ 6.81 µM)	2 µg/mL (≈ 3.41 µM)	4 µg/mL (≈ 6.81 µM)	30 µg/mL (≈ 51.1 µM)	15 µg/mL (≈ 25.6 µM)	30 µg/mL (≈ 51.1 µM)	30 µg/mL (≈ 51.1 µM)	12 µg/mL (≈ 20.4 µM)	2 µg/mL
CC(C)NC(=O)CC[C@@H](C)[C@H]1CCC2C3C(CC[C@@]21C)[C@@]1(C)CC[C@H](NCCNCCNCCNCCNCCN)CC1C[C@H]3O (stereo partly drawn) [(22), 3β-(pentaethylenehexamine)-N-isopropylchenodeoxycholamide]	8 µg/mL (≈ 12.3 µM)	8 µg/mL (≈ 12.3 µM)	2 µg/mL (≈ 3.09 µM)	32 µg/mL (≈ 49.4 µM)	32 µg/mL (≈ 49.4 µM)	32 µg/mL (≈ 49.4 µM)	130 µg/mL (≈ 201 µM)	65 µg/mL (≈ 100 µM)	120 µg/mL (≈ 185 µM)	4 µg/mL
CC(C)NC(=O)CC[C@@H](C)[C@H]1CCC2C3C(CC[C@@]21C)[C@@]1(C)CC[C@H](NCCCN(C)CCCN)CC1C[C@@H]3O (stereo partly drawn) [(28), 3β-(bis(3-aminopropyl)methylamine)-N-isopropylursodeoxycholamide]	28 µg/mL (≈ 49.9 µM)	28 µg/mL (≈ 49.9 µM)	14 µg/mL (≈ 25 µM)	56 µg/mL (≈ 99.8 µM)	56 µg/mL (≈ 99.8 µM)	112 µg/mL (≈ 200 µM)	112 µg/mL (≈ 200 µM)	112 µg/mL (≈ 200 µM)	28 µg/mL (≈ 49.9 µM)	7 µg/mL
CC(C)NC(=O)CC[C@@H](C)[C@H]1CCC2C3CCC4C[C@@H](NCCCN5CCN(CCCN)CC5)CC[C@]4(C)C3C[C@H](O)[C@@]21C (stereo partly drawn) [(3), 3β-(1,4-bis(3-aminopropyl)piperazine)-N-isopropyldeoxycholamide]	15 µg/mL (≈ 24.4 µM)	15 µg/mL (≈ 24.4 µM)	4 µg/mL (≈ 6.49 µM)	124 µg/mL (≈ 201 µM)	124 µg/mL (≈ 201 µM)	> 124 µg/mL	124 µg/mL (≈ 201 µM)	62 µg/mL (≈ 101 µM)	120 µg/mL (≈ 195 µM)	2 µg/mL
